Test system: GL261-Luc cells (syngeneic orthotopic gliomas)
Assay: GL261-luc intracranial orthotopic syngeneic brain (glioma) model, survival
Assay type: in vivo, C57BL/6J mice
Method: Female C57BL/6J mice (Beijing VR Laboratory Animal Co., LTD; 6 to 8 weeks old, approximately 18-22 g) were used for intracranial […] orthotopic glioma experiment. To establish syngeneic orthotopic gliomas, 200,000 GL261-Luc cells were stereotactically injected in a 3-μL volume of PBS mixed with 20% Matrigel into the left striatum over 1 minute, 3 mm deep from the cortical surface. Tumor burden was monitored by bioluminescence signal with IVIS imaging by injection 1.5 mg of luciferin per animal prior to imaging. On day 7 after implantation the mice were randomly allocated into treatment arms based on tumor radiance, so that the average tumor radiance in each group was approximately 8.50E+06 photon/sec (Day 0). Animals were treated for 28 days with HBI-2375 (80 mg/kg QD PO), Anti-PD-1 (RMP1-14) antibody (10 mg/kg BIW IP) and/or whole body radiation therapy (2 Gy/day×5 days) in monotherapy, doublet or triplet therapy and as described in the protocol.
The tumor take rate was 100%. Each arm had 10 mice in survival experiments. Study was terminated on Day 85.

`Cc1c(F)c(N)cc(C(=O)Nc2cc(-n3cc(C(=O)N4CCN(C)CC4)nn3)c(F)cc2N2C[C@@H](C)N(C)[C@@H](C)C2)c1Cl` [HBI-2375, 5-amino-2-chloro-4-fluoro-N-(4-fluoro-5-(4-(4-methylpiperazine-1-carbonyl)-1H-1,2,3-triazol-1-yl)-2-((3S,5R)-3,4,5-trimethylpiperazin-1-yl)phenyl)-3-methylbenzamide] was tested, and the “% Survival at Day 85” value (Day 85, same dosing) was 10%, the “Median Survival” value (GL261-Luc intracranial, 10 mice per arm, treated 28 days, HBI-2375 80 mg/kg QD PO, anti-PD-1 10 mg/kg BIW IP, radiation 2 Gy/day x 5 days, study terminated Day 85) was 17.5 days and the “survival (in words)” value (in combination with Anti-PD-1 and Radiation, FIG. 1 legend) was “increases survival”. The “Survival at Day 85” value (surviving mice / mice per arm at Day 85, same dosing) was 1/10.
